Counter-ions that a name gives are not always drawn. Like-named read-outs stand apart in the source and are kept apart here.
Legend:
[1] = tested on: apomorphine-induced emesis; assay: Inhibitory effect on apomorphine-induced emesis in dog; assay type: in vivo, Beagle dogs; details: Canis lupus familiaris, read-out: ED50 apomorphine-induced emesis, dog
Protocol: Inhibitory Effect on Apomorphine-induced Emesis
Three to four Beagle dogs (body weight: 8-15 kg) per group were used to examine the inhibitory effect of the test compounds on apomorphine-inducedemesis. This test has been commonly conducted as a method for detecting dopamine blocker. Each of the test animals was orally administered with a prescribed dose of a test compound as dissolved or suspended in 0.5% tragacanth solution, and two hours thereafter, was administered with apomorphine hydrochloride (0.3 mg/kg) by subcutaneous injection at the back.

cisplatin-induced emesis [2] = assay: Effect on cisplatin-induced emesis in ferrets; assay type: in vivo, Male ferrets; details: Mustela putorius, 0.5 h, read-out: ED50 cisplatin-induced emesis, ferret
Protocol: Effect on Cisplatin-induced Emesis in Ferrets
Male ferrets (Marshall Lab., U.S.A.) weighing approximately 1 kg were used. For intravenous injection, a cannule was implanted in the cervical vein under pentobarbital anethesia, 3-4 days in advance of the experiment. To each test group each a prescribed dose of a test compound as dissolved or suspended in 0.5% tragacanth solution was orally administered, and 30 minutes thereafter, cisplatin (Sigma) 10 mg/kg (physiological salt solution, 3 ml/kg) was administered intravenously through the cannule.

cisplatin-induced emesis [3] = assay: Effect on cisplatin-induced emesis in dog; assay type: in vivo, Beagle dogs; details: Canis lupus familiaris, 0.5 h, read-out: ED50 cisplatin-induced emesis, dog
Protocol: Effect on Cisplatin-induced Emesis in Dog
Four to five Beagle dogs (body weight: 10-12 kg) per group were used to examine the inhibitory effect of the test compounds on cisplatin-induced emesis. To each test group each a prescribed dose of a test compound as dissolved or suspended in 0.5% tragacanth solution was orally administered, and 30 minutes thereafter, cisplatin (Sigma) 3 mg/kg (physiological salt solution, 3 ml/kg) was intravenously administered.

[4] = Inhibitory effect on exploratory activity; parameters: species or system Male mice (Std-ddy strain); details: mouse, in vivo; mice, oral, 2 hours after administration, counts for 3 minutes; read-out: ED50 inhibition of exploratory activity
Protocol: Inhibitory Effect on Exploratory Activity
Male mice (5 per group, Std-ddy strain, weighing 20-25 g) were used as the test animals, each of which was orally administered with a test compound which was dissolved or suspended in 0.5% tragacanth solution and after 2 hours from the administration put in a test cage (23×35×30 cm) on Animex activity meter (Farad Co.). Exploratory activity of each mouse was counted for the following 3 minutes. The mean counts of exploratory activities (count/3 min.) per group of the tested mice was compared with that of the control group to calculate the inhibition rate, and the effective dose (ED50 value) of each test compound for 50% inhibition was determined by probit analysis.

Dopamine D2 receptor = Dopamine D2 receptor (Rattus norvegicus, UniProt P61169); assay: biochemical
Protocol: (§1) Dopamine D2 receptor-binding and serotonin S3 receptor-binding activities (in vitro receptor binding assay)
(§2) Crude synaptosome fractions prepared from rat brain were used as receptor samples, and [^3 H] spiperone (D2) and [^3 H] quipazine (S3), as labelled ligands. A buffer solution containing each of the receptor sample and labelled ligand (final volume: 1 ml) was incubated for a prescribed period in the presence of one of the test compounds at various concentration levels, and thereafter the radioactive ligand bound to the receptor was isolated onto a filter using a cell-harvester (Brandel Co.) and radioactivity on each filter was measured with a liquid scintillation counter to determine the total amount bound to the receptor. Specifically bound amount was calculated by subtracting non-specifically bound amount from the total amount bound, said non-specifically bound amount being that bound under the presence of an excessive amount of non-labelled ligand [spiperone (D2) and [^3 H] quipazine (S3)] which was concurrently measured. The concentration level of the test compound at which specific binding of labelled ligand was inhibited by 50% (IC50 value) was calculated by probit analysis.

[5] = target: T1, serotonin S3 (5-HT3) receptor (Rattus norvegicus, UniProt P35563); assay: Inhibitory effect on von Bezold-Jarisch reflex (anti-serotonin S3 activity); assay type: in vivo, Male Wister rats; parameters: Male Wister rats weighing 250-350 g were anesthetized with urethane; from tissue; host or cells: whole animal in vivo (male Wistar rats); details: 0.05 h, test compound intravenous 3 minutes before 2-methylserotonin 10-30 μg/kg i.v., read-out: ED50 von Bezold-Jarisch Reflex Inhibition
T1 sequence (P35563 24-483): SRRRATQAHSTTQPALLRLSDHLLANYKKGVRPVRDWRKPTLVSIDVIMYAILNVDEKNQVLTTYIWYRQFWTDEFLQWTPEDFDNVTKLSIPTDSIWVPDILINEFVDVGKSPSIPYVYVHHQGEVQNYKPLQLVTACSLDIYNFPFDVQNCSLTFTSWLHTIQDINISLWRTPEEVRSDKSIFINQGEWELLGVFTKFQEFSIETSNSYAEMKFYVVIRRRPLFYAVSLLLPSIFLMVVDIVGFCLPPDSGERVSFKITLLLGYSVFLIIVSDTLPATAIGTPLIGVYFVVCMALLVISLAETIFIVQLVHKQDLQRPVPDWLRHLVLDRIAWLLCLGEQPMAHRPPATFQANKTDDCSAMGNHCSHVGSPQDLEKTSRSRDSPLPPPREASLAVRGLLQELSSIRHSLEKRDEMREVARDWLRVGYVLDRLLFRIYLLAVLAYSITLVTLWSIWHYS
Protocol: Inhibitory Effect on von Bezold-Jarisch Reflex (Anti-serotonin S3 Activity)
This test was carried out following the method of Fozard, et al. [cf. Arch. […] Male Wister rats weighing 250-350 g were anesthetized with urethane (1.5 g/kg, intraperitoneal) and set on their backs. Electrocardiogram (lead II) and a heart rate on the animals were recorded on inkwriting oscillograph via a biophysical amplifier and pulse rate tachometer, respectively. […] A fixed amount of 2-methylserotonin was repeatedly administered at 15-minute intervals until stable responses were obtained, and then a test compound was administered intravenously, 3 minutes before administration of 2-methylserotonin.

[6] = target: T1, serotonin S3 (5-HT3) receptor; assay: Serotonin S3 receptor-binding (in vitro receptor binding assay, [3H] quipazine); parameters: Crude synaptosome fractions prepared from rat brain were used as receptor samples; from tissue; host or cells: rat brain, crude synaptosome fraction
Protocol: as §1, §2

[7] = dog, oral, 2 hours before apomorphine hydrochloride 0.3 mg/kg s.c., emetic episodes within 1 hour
[8] = ferret, oral, 30 minutes before cisplatin 10 mg/kg i.v., emetic episodes within 3 hours
[9] = dog, oral, 30 minutes before cisplatin 3 mg/kg i.v., emetic episodes within 5 hours

Sequence of Dopamine D2 receptor (P61169 whole entry): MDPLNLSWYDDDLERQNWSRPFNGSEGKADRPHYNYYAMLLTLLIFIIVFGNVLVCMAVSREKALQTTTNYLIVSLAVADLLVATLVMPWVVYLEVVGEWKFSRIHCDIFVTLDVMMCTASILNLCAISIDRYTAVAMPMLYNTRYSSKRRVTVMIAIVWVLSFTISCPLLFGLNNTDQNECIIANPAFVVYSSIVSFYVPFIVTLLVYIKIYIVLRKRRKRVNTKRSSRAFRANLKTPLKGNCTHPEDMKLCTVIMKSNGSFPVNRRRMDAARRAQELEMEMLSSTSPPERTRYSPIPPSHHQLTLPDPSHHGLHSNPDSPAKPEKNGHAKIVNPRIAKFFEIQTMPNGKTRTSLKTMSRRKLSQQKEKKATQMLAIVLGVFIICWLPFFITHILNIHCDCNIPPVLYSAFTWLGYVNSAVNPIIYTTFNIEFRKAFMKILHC

IC50 ([6]; crude synaptosome fractions from rat brain, [3H] quipazine (S3), read-out: IC50 S3) [nM] | SMILES | ED50 [1, 7] [mg/kg] | ED50 (cisplatin-induced emesis [2]; [8]) [mg/kg] | ED50 (cisplatin-induced emesis [3]; [9]) [mg/kg] | ED50 at 2 h [4] [mg/kg] | IC50 (Dopamine D2 receptor) [nM] | ED50 [5] [mg/kg] | ED50 ([1]; po, 2 h) [mg/kg] | ED50 (cisplatin-induced emesis [2]; po) [mg/kg] | ED50 (cisplatin-induced emesis [3]; po) [mg/kg] | IC50 [6] [nM]
1 | CCN1CCN(C)C[C@@H](NC(=O)c2cc(Br)c(NC)nc2OC)C1.O=C(O)/C=C/C(=O)O.O=C(O)/C=C/C(=O)O [Example 1, (R)-5-bromo-N-(1-ethyl-4-methylhexahydro-1H-1,4-diazepin-6-yl)-2-methoxy-6-methylamino-3-pyridinecarboxamide Difumarate] | 0.19 | 0.03 | 0.29 | 48.5 | 11.7 | 0.0019 | – | – | – | –
– | O=c1[nH]c2ccccc2n1CCCN1CCC(n2c(=O)[nH]c3cc(Cl)ccc32)CC1 [domperidone, 5-chloro-1-[1-[3-(2,3-dihydro-2-oxo-1H-benzimidazol-1-yl)propyl]-4-piperidinyl]-1,3-dihydro-2H-benzimidazol-2-one] | – | – | – | – | – | – | 0.02 | > 10 | > 3 | –
– | CN1C2CCCC1CC(NC(=O)c1nn(C)c3ccccc13)C2 (stereo not drawn) [granisetron hydrochloride, endo-1-methyl-N-(9-methyl-9-azobicyclo-[3.3.1]non-3-yl)-1H-indazole-3-carboxamide hydrochloride] | – | – | – | – | > 100000 | 0.00026 | – | – | – | –
– | CCN(CC)CCNC(=O)c1cc(Cl)c(N)cc1OC.Cl.Cl.O [metoclopramide hydrochloride, 4-amino-5-chloro-N-[2-(diethylamino)ethyl]-2-methoxybenzamide dihydrochloride monohydrate] | 0.45 | 0.98 | 3.96 | 22.4 | – | 0.181 | – | – | – | 880
– | Cc1nccn1CC1CCc2c(c3ccccc3n2C)C1=O.Cl (centres unmarked) [ondansetron hydrochloride, 1,2,3,9-tetrahydro-9-methyl-3-[(2-methyl-1H-imidazol-1-yl)methyl]-4H-carbazol-4-one hydrochloride] | > 10 | 0.1 | 0.16 | – | > 100000 | 0.0011 | – | – | – | –

Source: US5945415A, “(R)-5-bromo-N-(1-ethyl-4-methylhexahydr o-1H-1,4-diazepin-6-yl)-2-methoxy-6-methylamino-3-pyridinecarboxamide, process for producing the same and medicinal composition containing the same” (priority 1995, dated 1999)
